# Measurements taken from patent publication US20150299233A1, “COMPOSITIONS AND METHODS COMPRISING RHENIUM FOR THE TREATMENT OF CANCERS” (Massachusetts Institute of Technology, priority 2014, published 2015).
# Like-named read-outs stand apart in the source and are kept apart here.
# How the values were obtained:
# Type in all cases: cell-based, human
# MRC-5 = assay: MTT cytotoxicity assay, MRC-5 normal lung fibroblasts; settings: for selectivity over normal fibroblast cells (IC50 higher in normal fibroblasts than in cancer cells): cancer cells versus normal fibroblast cells
# Protocol: In vitro toxicity of the rhenium (v) oxo complexes, 1 and 2 towards a panel of human cell lines was determined using the colorimetic MTT [[3-(4,5-dimethylithiazol-2-yl)-2,5-diphenyltetrazolium bromide] assay.
# The in vitro effect of rhenium(V) oxo complexes 1 and 2 toward a panel of human cell lines was determined by the colorimetric MTT [3-(4,5-dimethylthiazol-2-yl)-2,5-diphenyltetrazolium bromide] assay. […] The IC50 values, or concentration required to induce 50% cell death, were derived from dose—response curves and are summarized in Table 1.
# Cells (2×10^3 cells/well) were seeded in a 96-well plate. […] 1 and 2 were prepared as 10 mM solutions in DMSO and diluted using media. The final concentration of DMSO in each well was 0.5%, and this amount was also present in the untreated control. After 72 h, the medium was removed, 200 μL of a 0.4 mg/mL solution of MTT in DMEM, RPMI, or McCoy's 5A was added, and the plate was incubated for an additional 1-2 h. The DMEM/MTT, RPMI/MTT, or McCoy's 5A/MTT mixture was aspirated, and 200 μL of DMSO was added to dissolve the resulting purple formazan crystals. The absorbance of the solution wells was read at 550 nm. Absorbance values were normalized to DMSO-containing control wells and plotted as the concentration of test compound versus % cell viability. IC50 values were interpolated from the resulting dose-dependent curves. The reported IC50 values are the average from at least three independent experiments, each of which consisted of six replicates per concentration level.
# PC-3 = assay: Cytotoxicity in the presence of necrostatin-1, PC-3 cells; settings: necrostatin-1 60 μM, t test p<0.05
# Protocol: (§1) In order to determine the cell-killing mechanism of 1 and 2, cytotoxicity studies in the presence of apoptosis and necrosis inhibitors were conducted. […] The possibility that 1 and 2 induce necroptosis was then investigated. Necroptosis is a well-regulated mode of cell death that is different from unregulated necrosis and apoptosis. Unlike unregulated necrosis, which can be induced by H2O2 or heat, necroptosis generally involved the interaction of protein kinases, RIP1 and RIP3, to initiate cell disintegration. This process can be blocked by necrostatin-1, a potent RIP1 kinase inhibitor. To determine whether 1 and 2 induced necroptosis and/or uncontrolled necrosis, cytotoxicity studies were conducted in the presence of necrostatin-1 (60 μM) and IM-54 (10 μM), an inhibitor of H2O2-induced necrosis. […] Therefore, 1- and 2-induced cell death relies on RIP1-RIP3 complex formation and not on the expression levels of the individual protein kinases. RIP1 can also form a cytosolic complex with Fas-associated death domain (FADD) and caspase 8, known as a ripoptosome, to initiate apoptosis (through caspase 8 cleavage).
# Cytotoxicity MTT Assay. […] Cells (2×10^3 cells/well) were seeded in a 96-well plate. […] The absorbance of the solution wells was read at 550 nm. Absorbance values were normalized to DMSO-containing control wells and plotted as the concentration of test compound versus % cell viability. […]
# A549 cells [1] = assay: Immunoblotting analysis of treated A549 cells; settings: for cleaved caspases 7 and 9: 50-500 nM for 72 h; for FADD and cleaved caspase 8 expression: increasing concentration; for overall expression level of RIP1 and RIP3: increasing dosages
# Protocol: as §1
# (PARP-1). PARP-1 is a nuclear enzyme that is involved in DNA repair and transcriptional regulation. DNA damage can trigger PARP-1 activity, resulting in ATP and NAD depletion and bioenergetics- mediated cell death. To determine whether PARP-1 activity is a factor in 1- and 2-mediated cell death, cytotoxicity assays were conducted with wild-type mouse embryonic fibroblast cells (MEFs PARP-1+/+) and the corresponding PARP-1-null cells (MEFs PARP-1−/−). […] Recently, p53 has also been reported to play a role in necroptosis. p53 induces cathepsin Q, a lysosomal protease that cooperates with ROS to execute necrosis. To investigate whether p53 might play a role in 1- and 2-mediated necroptosis, cytotoxicity studies were conducted with HCT116 p53^+/+ nd HCT116 p53^−/− cells.
# Immunoblotting Analysis. A549 cells (1.5×10^6 cells/well) grown in six-well plates were incubated with 1 and 2 (concentrations, sub-μM) for 72 h at 37° C. Cells were washed with PBS, scraped into SDS-PAGE loading buffer (64 mM Tris-HCl (pH 6.8)/9.6% glycerol/2% SDS/5% /1-mercaptoethanol/0.01% Bromophenol Blue), and incubated at 95° C. for 10 min. Whole cell lysates were resolved by 4-20% sodium dodecyl sulfate polyacylamide gel electrophoresis (SDS-PAGE; 200 V for 25 min), followed by electro-transfer to polyvinylidene difluoride membrane (350 mA for 1 h). Membranes were blocked in 5% (w/v) non-fat milk in PBST (PBS/0.1% Tween 20) and incubated with the appropriate primary antibodies (Cell Signalling Technology and Santa Cruz). After incubation with horseradish peroxidase-conjugated secondary antibodies (Cell Signalling Technology), immuno complexes were detected with the ECL detection reagent (BioRad) and analyzed using an Alpha Innotech Chemilmager 5500 instrument fitted with a chemiluminescence filter.
# A549 cells [2] = assay: Cell cycle analysis, DNA-flow cytometry; settings: 2 μM
# Protocol: Cell Cycle Analysis. To gain a more complete understanding of the cellular response evoked, DNA-flow cytometric studies were conducted to determine the effect of 1 and 2 on the cell cycle. A549 cells were treated with 1 or 2 (2 μM), and the cell cycle was determined over the course of 72 h. […] Upon further incubation (72 h), large populations of cell debris were detected (32%), indicative of cell death. […] G1-phase cell cycle arrest followed by immediate cell death is characteristic of programmed necrosis.
# Cell Cycle. In order to monitor the cell cycle, flow cytometry studies were carried out. A549 cells (1.5×10^6 cells/well) grown in six-well plates were incubated with and without the test compounds for 24, 48, and 72 h at 37° C. Cells were harvested from adherent cultures by trypsinization and combined with all detached cells from the incubation medium to assess total cell viability. Following centrifugation at 1000 rpm for 5 min, cells were washed with PBS and then fixed with 70% ethanol in PBS. Fixed cells were collected by centrifugation at 2500 rpm for 3 min, washed with PBS, and centrifuged as before. Cellular pellets were resuspended in 50 μg/mL PI (Sigma) in PBS for nucleic acids staining and treated with 100 µg/mL RNaseA (Sigma). DNA content was measured on a FACSCalibur-HTS flow cytometer (BD Biosciences) using laser excitation at 488 nm, and 20 000 events per sample were acquired. Cell cycle profiles were analyzed using the ModFit software.
# [3] = Table 1, 72 h exposure, ± standard deviation, read-out: IC50 MRC-5 lung fibroblast
# [4] = Table A, average of three independent determinations, read-out: IC50 MRC5 (lung normal)
Structure (SMILES),IC50 (MRC-5; [3]),IC50 (MRC-5; [4]),selectivity over normal fibroblast cells (IC50 higher in normal fibroblasts than in cancer cells) (MRC-5),"effect of co-incubation with necrostatin-1 on toxicity, PC-3 (PC-3)","markers of DNA damage, phosphorylated H2AX (γH2AX) and CHK2 (A549 cells [1])",cleaved caspases 7 and 9 (A549 cells [1]),FADD and cleaved caspase 8 expression (A549 cells [1]),overall expression level of RIP1 and RIP3 (A549 cells [1]),effect on cell cycle after 24 h (A549 cells [2]),effect on cell cycle after 48 h (A549 cells [2]; 48 h),"population of cell debris, 72 h (A549 cells [2])","population of cell debris, 48 h (A549 cells [2]; 48 h)"
"C[O][Re](=[O])([Cl])[Cl].c1ccc(-c2ccnc3c2ccc2c(-c4ccccc4)ccnc23)cc1 [Compound 1, [ReO(OMe)(4,7-diphenyl-1,10-phenanthroline)-Cl2]]",1350 ± 228 nM,1350 ± 228 nM,about 10 fold,markedly decreased the toxicity,did not up-regulate,not detected,remained unaltered,remained unchanged,stalled the cell cycle at the G1 phase,remained stalled at the G1 phase,32%,–
"C[O][Re-2]1(=[O])([Cl])([Cl])[n+]2cc(C)c(C)c3ccc4c(C)c(C)c[n+]1c4c32 [Compound 2, [ReO(OMe)(3,4,7,8-tetramethyl-1,10-phenanthroline)Cl2]]",709 ± 76 nM,709 ± 76 nM,about 10 fold,markedly decreased the toxicity,did not up-regulate,not detected,remained unaltered,remained unchanged,stalled the cell cycle at the G1 phase,–,38%,26%
